Assay results: ChEMBL document CHEMBL3045592, “Studies of O,O-dimethyl α-(2,4-dichlorophenoxyacetoxy)ethylphosphonate (HW02) as a new herbicide. 1. Synthesis and herbicidal activity of HW02 and analogues as novel inhibitors of pyruvate dehydrogenase complex” (J Agric Food Chem, 2011)

Legend:
Format in all cases: functional
[1] = tested on: Amaranthus retroflexus; assay: Post-emergence herbicidal activity against Amaranthus retroflexus assessed as growth inhibition at 1500 ai g/ha after 20 days by green house test
[2] = tested on: Echinochloa crus-galli; assay: Post-emergence herbicidal activity against Echinochloa crus-galli (barnyard grass) assessed as growth inhibition at 1500 ai g/ha after 20 days by green house test
[3] = tested on: Brassica rapa subsp. oleifera; assay: Pre-emergence herbicidal activity against Brassica rapa subsp. oleifera Si Yue Man assessed as growth inhibition at 1500 ai g/ha after 20 days by green house test
[4] = tested on: Brassica rapa subsp. oleifera; assay: Post-emergence herbicidal activity against Brassica rapa subsp. oleifera Si Yue Man assessed as growth inhibition at 1500 ai g/ha after 20 days by green house test
[5] = tested on: Digitaria sanguinalis; assay: Post-emergence herbicidal activity against Digitaria sanguinalis (hairy crabgrass) assessed as growth inhibition at 1500 ai g/ha after 20 days by green house test
[6] = tested on: Amaranthus retroflexus; assay: Pre-emergence herbicidal activity against Amaranthus retroflexus assessed as growth inhibition at 1500 ai g/ha after 20 days by green house test
[7] = tested on: Medicago sativa; assay: Pre-emergence herbicidal activity against Medicago sativa (alfalfa) assessed as growth inhibition at 1500 ai g/ha after 20 days by green house test
[8] = tested on: Medicago sativa; assay: Post-emergence herbicidal activity against Medicago sativa (alfalfa) assessed as growth inhibition at 1500 ai g/ha after 20 days by green house test
[9] = tested on: Digitaria sanguinalis; assay: Pre-emergence herbicidal activity against Digitaria sanguinalis (hairy crabgrass) assessed as growth inhibition at 1500 ai g/ha after 20 days by green house test
[10] = tested on: Echinochloa crus-galli; assay: Pre-emergence herbicidal activity against Echinochloa crus-galli (barnyard grass) assessed as growth inhibition at 1500 ai g/ha after 20 days by green house test

Row | SMILES | growth inhibition (GI) [1] | growth inhibition (GI) [2] | growth inhibition (GI) [3] | growth inhibition (GI) [4] | growth inhibition (GI) [5] | growth inhibition (GI) [6] | growth inhibition (GI) [7] | growth inhibition (GI) [8] | growth inhibition (GI) [9] | growth inhibition (GI) [10]
1 | COP(=O)(OC)C(OC(=O)COc1ccc(F)c(Cl)c1)C(Cl)(Cl)Cl (stereo not given) | 90% | 50% | <=50% | 75% | <=50% | 50% | 50% | 50% | 75% | 50%
2 | COP(=O)(OC)C(OC(=O)COc1ccc(F)c(Cl)c1)c1ccccc1 (stereo not given) | 75% | 50% | 90% | 75% | <=50% | 90% | 75% | 50% | 90% | 75%
3 | COP(=O)(OC)C(OC(=O)COc1ccc(F)cc1F)c1ccccc1 (stereo not given) | 90% | <=50% | <=50% | <=50% | <=50% | 50% | 50% | <=50% | <=50% | 75%
4 | COP(=O)(OC)C(OC(=O)COc1ccc(F)cc1Cl)c1ccccc1O (stereo not given) | 90% | 50% | 90% | 90% | <=50% | 90% | 90% | 90% | 90% | 50%
5 | COP(=O)(COC(=O)COc1ccc(C(F)(F)F)cc1)OC | 75% | <=50% | <=50% | <=50% | <=50% | <=50% | <=50% | <=50% | <=50% | <=50%
6 | COP(=O)(OC)C(C)OC(=O)COc1ccc(Br)cc1 (stereo not given) | 50% | <=50% | <=50% | 75% | <=50% | <=50% | <=50% | 50% | <=50% | <=50%
7 | COP(=O)(OC)C(C)OC(=O)COc1ccc(F)cc1Cl (stereo not given) | 90% | 75% | 90% | 90% | 75% | 90% | 90% | 90% | 90% | 90%
8 | COP(=O)(OC)C(OC(=O)COc1ccc(F)cc1F)c1cccc([N+](=O)[O-])c1 (stereo not given) | 75% | <=50% | <=50% | 75% | 50% | <=50% | 50% | 50% | 50% | <=50%
9 | COP(=O)(OC)C(OC(=O)COc1c(Cl)cccc1Cl)c1cccc([N+](=O)[O-])c1 (stereo not given) | <=50% | <=50% | <=50% | <=50% | <=50% | <=50% | <=50% | <=50% | <=50% | <=50%
10 | COP(=O)(OC)C(OC(=O)COc1cccc(Cl)c1Cl)c1cccc([N+](=O)[O-])c1 (stereo not given) | <=50% | <=50% | <=50% | <=50% | <=50% | <=50% | <=50% | <=50% | <=50% | <=50%
11 | COP(=O)(COC(=O)COc1ccccc1)OC [(DIMETHOXYPHOSPHORYL)METHYL 2-PHENOXYACETATE] | <=50% | <=50% | <=50% | <=50% | <=50% | <=50% | <=50% | <=50% | <=50% | <=50%
12 | COP(=O)(OC)C(C)OC(=O)COc1ccc(Cl)cc1 (stereo not given) | 90% | <=50% | 90% | 75% | <=50% | 90% | 90% | 50% | 90% | 90%
13 | COP(=O)(OC)C(C)OC(=O)COc1ccccc1F (stereo not given) | <=50% | <=50% | <=50% | <=50% | <=50% | <=50% | <=50% | <=50% | <=50% | <=50%
14 | COP(=O)(OC)C(C)OC(=O)COc1cccc(Cl)c1Cl (stereo not given) | 50% | <=50% | <=50% | <=50% | <=50% | <=50% | <=50% | <=50% | <=50% | <=50%
15 | COP(=O)(OC)C(C)OC(=O)COc1cccc(C)c1C (stereo not given) | 50% | 50% | 90% | 75% | <=50% | 75% | 75% | 50% | <=50% | 75%
16 | COP(=O)(OC)C(OC(=O)COc1cccc(C)c1C)c1ccccc1 (stereo not given) | <=50% | 50% | 90% | 75% | <=50% | 50% | 75% | 50% | <=50% | 75%
17 | COP(=O)(OC)C(C)OC(=O)COc1ccc(Cl)c(C)c1 (stereo not given) | 50% | <=50% | 90% | 50% | <=50% | 75% | 75% | 50% | 75% | 75%
18 | COP(=O)(OC)C(C)OC(=O)COc1ccc(F)cc1F (stereo not given) | 75% | <=50% | <=50% | 75% | 50% | <=50% | 50% | 50% | 75% | <=50%
19 | COP(=O)(OC)C(OC(=O)COc1ccc(F)cc1)c1cccc([N+](=O)[O-])c1 (stereo not given) | 75% | 50% | <=50% | 50% | 50% | 75% | 75% | 50% | 90% | 50%
20 | COP(=O)(OC)C(OC(=O)COc1ccc(Cl)cc1)c1cccc([N+](=O)[O-])c1 (stereo not given) | 75% | 75% | 90% | 75% | 50% | 90% | 90% | 75% | 90% | 90%
21 | COP(=O)(OC)C(OC(=O)COc1cccc(F)c1)c1cccc([N+](=O)[O-])c1 (stereo not given) | <=50% | <=50% | <=50% | <=50% | <=50% | <=50% | <=50% | <=50% | <=50% | <=50%
22 | COP(=O)(OC)C(C)OC(=O)COc1ccc(Cl)cc1[N+](=O)[O-] (stereo not given) | <=50% | <=50% | <=50% | <=50% | <=50% | <=50% | <=50% | <=50% | <=50% | <=50%
